Source: the supplement of paper PMC6045584

Key:
Assay in all cases: area under dose-response curve of surviving fraction (unscaled, Aref=0) (surviving fraction x log10(nM)); higher = more resistant
Conditions in all cases: exposure time: 5 days; dose range 0.5-1000 nM
[1] = compound: CCn1c(C(=O)N(C2CC2)C2CC2)cc2c3c(ncn3C)c(Nc3cc(C)n(C)n3)nc21
Summary of the method: (§1)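 Surviving fractions were fitted by 3-parameter logistic regression in the drc R package to give dose-response survival curves. They came from tumour cell lines treated for five days with eight inhibitor concentrations from 0.5 to 1000 nM and read by CellTiter-Glo luminescence against DMSO-only wells. The area under the curve is the unscaled activity area. It was calculated over log10 dose with Aref = 0.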

SOTRASTAURIN/AEB071 = compound: CN1CCN(c2nc(C3=C(c4c[nH]c5ccccc45)C(=O)NC3=O)c3ccccc3n2)CC1 [SOTRASTAURIN/AEB071]
Summary of the method: as §1

SORAFENIB = compound: CNC(=O)c1cc(Oc2ccc(NC(=O)Nc3ccc(Cl)c(C(F)(F)F)c3)cc2)ccn1 [SORAFENIB]
Summary of the method: as §1

[2] = compound: CNCc1ccc(-c2[nH]c3cc(F)cc4c3c2CCNC4=O)cc1
Summary of the method: as §1

FORETINIB = compound: COc1cc2c(Oc3ccc(NC(=O)C4(C(=O)Nc5ccc(F)cc5)CC4)cc3F)ccnc2cc1OCCCN1CCOCC1 [FORETINIB]
Summary of the method: as §1

[3] = compound: COc1cc2ncnc(Nc3ccc(F)c(Cl)c3)c2cc1NC(=O)/C=C/CN1CCCCC1
Summary of the method: as §1

[4] = compound: C[C@@H](Oc1cc(-c2cnn(C3CCNCC3)c2)cnc1N)c1c(Cl)ccc(F)c1Cl
Summary of the method: as §1

ABIRATERONE = compound: C[C@]12CC[C@H](O)CC1=CC[C@@H]1[C@@H]2CC[C@]2(C)C(c3cccnc3)=CC[C@@H]12 [ABIRATERONE]
Summary of the method: as §1

OLAPARIB = compound: O=C(c1cc(Cc2n[nH]c(=O)c3ccccc23)ccc1F)N1CCN(C(=O)C2CC2)CC1 [OLAPARIB]
Summary of the method: as §1

XAV-939 = compound: Oc1nc(-c2ccc(C(F)(F)F)cc2)nc2c1CSCC2 [XAV-939]
Summary of the method: as §1

Test System | area under dose-response curve [1] | area under dose-response curve (SOTRASTAURIN/AEB071) | area under dose-response curve (SORAFENIB) | area under dose-response curve [2] | area under dose-response curve (FORETINIB) | area under dose-response curve [3] | area under dose-response curve [4] | area under dose-response curve (ABIRATERONE) | area under dose-response curve (OLAPARIB) | area under dose-response curve (XAV-939)
G292 BONE | 3.3 | 3.33 | 3.26 | 3.17 | 2.74 | 3.03 | 2.88 | 3.4 | 3.17 | 3.14
HCC38 BREAST |  | 3.03 | 4.12 | 2.19 | 2.93 |  | 3.21 | 4.04 | 2.57 | 3.17
HCC70 BREAST | 3.28 | 3.82 | 3.81 | 3.67 | 3.69 | 3.17 | 3.26 | 3.59 | 3.59 | 
HMLE3 BREAST | 3.12 |  |  |  | 2.9 | 3.01 | 2.86 | 3.42 | 3.22 | 3.15
HMT3552 BREAST |  |  |  | 2.94 | 2.99 |  |  |  |  | 
HS578T BREAST | 3.19 | 3.13 | 2.64 | 2.93 |  |  | 2.75 |  | 2.79 | 3.76
